Results reported in patent US6653317B2, “Pyrimidine 3-oxide compounds for inducing/stimulating hair growth and/or retarding hair loss” (Societe l'Oreal S.A., priority 1998, dated 2003).

target: T1, prostaglandin endo-peroxidesynthase (PGHS-1) (Ovis aries, UniProt P05979); experiment: Measurement of the prostaglandin-endoperoxide synthase (PGHS-1) activating power (oxygen consumption, Clark electrode); format: biochemical, sheep; details: test compound 0.5 mM; oxidation of arachidonic acid, 37° C., pH 8.00; % relative to the values obtained with the control
T1 construct: isolated from sheep seminal glands; purchased Cayman Chemical 60100; host or cells: sheep seminal glands (tissue-derived)
T1 sequence (P05979 25-600): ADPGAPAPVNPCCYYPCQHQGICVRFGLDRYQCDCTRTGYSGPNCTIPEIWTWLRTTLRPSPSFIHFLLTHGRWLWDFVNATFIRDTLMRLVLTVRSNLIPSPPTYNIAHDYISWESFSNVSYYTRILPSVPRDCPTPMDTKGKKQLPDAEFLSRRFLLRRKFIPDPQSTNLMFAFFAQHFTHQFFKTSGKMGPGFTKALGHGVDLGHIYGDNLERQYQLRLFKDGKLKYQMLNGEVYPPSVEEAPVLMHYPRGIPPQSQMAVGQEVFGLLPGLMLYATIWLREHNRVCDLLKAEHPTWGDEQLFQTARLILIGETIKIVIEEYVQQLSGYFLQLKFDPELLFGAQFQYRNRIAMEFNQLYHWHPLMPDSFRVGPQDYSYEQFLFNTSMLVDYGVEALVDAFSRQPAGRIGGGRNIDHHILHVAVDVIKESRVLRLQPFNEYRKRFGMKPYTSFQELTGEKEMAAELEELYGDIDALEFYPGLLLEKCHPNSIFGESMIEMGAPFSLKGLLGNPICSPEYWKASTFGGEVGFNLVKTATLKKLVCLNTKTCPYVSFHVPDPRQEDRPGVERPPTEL
Method: The amount of oxygen required for the oxidation of arachidonic acid was measured by means of the cyclooxygenase activity of the prostaglandin-endo-peroxide synthase, in the presence or absence of the test compound.
The oxygen consumption measurements were taken using a Clark electrode connected to a YSI 5300 oxymeter marketed by Yellow Spring Instruments.
These measurements were taken in an open chamber with constant stirring at a temperature of 37° C.
If a graph recorder was used, the oxygen consumption measurement is expressed in the form of a curve, the maximum slope of which makes it possible to determine the initial rate of the reaction, and from which it is possible to calculate the period for which the initial reaction rate is maintained.
The curve thus obtained, in the absence of any substance other than the ingredients required for the enzymatic reaction, provides the basal activity of the enzyme. The initial rate and the period for which this rate is maintained can be determined under these conditions in a reaction comprising only the enzyme and its substrate.
The activity of the test compounds was measured under the same conditions, by adding the test compound to the reaction medium. The activity of the test compound with respect to cyclooxygenase was evaluated by means of the variation of the slope and the variation of the period for which the maximum rate was maintained.
A solution of 0.1 M Tris and 5 mM EDTA at pH=8.00 (TE solution) was prepared.
The substrate was formulated in the form of a stock solution of potassium arachidonate according to the supplier's procedure (Interchim, France).
The test compounds were prepared in the form of a stock solution with a titre of 5 mM, in a water/alcohol mixture (80/20) and were tested with the same batch of enzyme.
At t=0, 380 μl of TEA buffer preheated to 37° C. were introduced into the measuring chamber and maintained to equilibrate for at least one minute.
At t=1, 300 units of enzyme (PGHS) were introduced.
Recording was initiated, and the mixture was again permitted to stabilize for one minute. The recording obtained provided the reaction baseline.
After a further minute, 10 μl of substrate were introduced and the oxygen consumption was recorded for 2 to 3 minutes.
The initial reaction rate and the period for which this rate was maintained were thus determined.
The experimental conditions were identical to those above, except that the TEA buffer preheated to 37° C. was replaced by an identical buffer containing the test compound at a concentration of 0.5 mM.
The following results are expressed as a % relative to the values obtained with the control.

Activation | Structure (SMILES)
+8% | CCCCCCCCNc1cc(OCCCC)nc(N)[n+]1[O-] [Example 17, 2-Amino-4-octylamino-6-butyloxypyrimidine 3-Oxide]
+11% | CCCCCCCCCCCCNc1ccnc(N)[n+]1[O-] [Example 2, 2-Amino-4-dodecylaminopyrimidine 3-Oxide]
+37% | CCCCCCNc1ccnc(N)[n+]1[O-] [Example 1, 2-Amino-4-hexylaminopyrimidine 3-Oxide]
+14% | CCCCCCCCNc1ccnc(N)[n+]1[O-] [Example 3, 2-Amino-4-octylaminopyrimidine 3-Oxide]
